Patent US6994981B2, “Modulators of paraptosis and related methods” (The Buck Institute, priority 2002, dated 2006)
Entries after “also recorded” stand apart in the source; their conditions may differ.

Experiments:
[1] = test system: striatal, cortical, and hippocampal neurons; experiment: SP-induced cell death in primary striatal, cortical and hippocampal neurons, trypan blue viability and staining; type: cell-based, rat
In short: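 Rat E17 striatal, cortical or hippocampal neurons, used day 1–7, received SP (0.1 nM–100 μM) 24–48 h after seeding in 2.5% horse serum; co-treatments given with SP, kinase inhibitors 30 min before. Viability measured by trypan blue staining of the total cell population.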

fibroblasts = experiment: SP toxicity to fibroblasts; type: cell-based; details: extracellular SP
cytoplasmic calcium = experiment: Imaging of cytoplasmic calcium in single striatal cells; type: cell-based
Procedure: Single-cell imaging was performed in a Merlin imaging facility (Olympus America, USA) using an Olympus IX70 inverted epifluorescence microscope equipped with a 40× oil immersion objective and a Spectramaster monochromator (Life Science Resources, Cambridge, UK) (excitation, 340 and 380 nm; emission >505 nm). Cells were loaded with 3 μM Fura-2 AM (from TEF LABS, Texas, USA) for 30 min in incubation medium containing (in mM): 120 NaCl, 3.5 KCl, 1.3 CaCl2, 0.4 KH2PO4, 20 TES buffer, 5 NaHCO3, 1.2 Na2SO4, 15 Glucose, 1.2 MgCl2, pH adjusted to 7.4 with NaOH. 30 μg/ml bovine serum albumin was also added. Experiments were performed in a non-perfusing thermostatted chamber (37° C.) with incubation medium without bovine serum albumin (Castilho et al., J. Neurosci. 18:10277–10286 (1998)).

[2] = test system: 293T cells transfected with NK1R; experiment: SP-induced, NK1R-mediated cell death in 293T cells transfected with NK1R, trypan blue and staining; type: cell-based, human
Procedure: (§1) Human embryonic kidney 293T cells were grown as described in Example I. Transient transfection was performed using Superfect (Qiagen) as described by the manufacturer. Briefly, 2×10^5 cells/well were seeded into 35 mm wells 16 hr prior to transfection. Superfect:DNA complexes were added at a 5 μl:2 μg ratio for 3 hr; then the medium was replaced and after 24 hr SP was added. At 24–48 hr after addition of SP cell death was quantified as follows: the media containing floating cells were collected and centrifuged 10 min at 2000×g, the pellet was resuspended in PBS/trypan blue and the cells were counted using a hematocytometer. When other compounds were used, they were added at the same time as SP: zVAD.fmk or BAF was added at 50 μM and obtained from Enzyme System Products, Livermore, Calif.
Briefly, the method entailed cloning the full-length (1.2 kb) NK1R cDNA (Genbank Accession No. M31477) by RT-PCR from adult rat hippocampal RNA into the XbaI/EcoRI sites of the vector pcDNA3.1 (Invitrogen), using the following oligonucleotides: forward 5′[…] 3′ (SEQ ID NO:2); reverse 5′[…] 3′ (SEQ ID NO:3).
Cells were stained according to the manufacturer's instructions (Clontech). Briefly, cellswere washed with binding buffer and incubated with FITC-Annexin-V or EGFPAnnexin-V for 5–10 min and fixed with 4% paraformaldehyde.
Cells were fixed 10 min with 4% paraformaldehyde and stained according to the manufacturer's instructions (Promega).
The protein kinase inhibitors were added 30 min before SP exposure at the following concentrations: 10 μM Rp-8-Br-cAMPS (adenosin 3′,5′-cyclic monophosphorothioate, 8-bromo-, Rp-isomer, sodium salt) which is a PKA inhibitor; 50 nM Calphostin C, which is a PKC inhibitor; 10 μM PD 98059 which is a MAPKK (MEK) inhibitor. These compounds were obtained from Calbiochem. Viability was quantified by trypan blue staining of the total cell population.

cytochrome c release = details: cell-free system of apoptosis; cited from earlier work
[3] = test system: 293T human embryonic kidney cells; experiment: SP toxicity to untransfected 293T cells; type: cell-based; details: no endogenous NK1R, up to millimolar SP
Procedure: as §1

## SP: eleven amino acid neurotransmitter of the tachykinin family, ligand of NK1R
[1]; 48 hours after exposure
  sensitivity of neurons to SP: sensitive to micromolar concentrations
[1]; L or D isomer
  effect of SP isomer on neuronal cell death: induced cell death
[1]; seven days after exposure, SP added only once
  sensitivity of neurons to SP: sensitive to nanomolar concentrations
fibroblasts
  toxicity to fibroblasts: resistant to micromolar concentrations; also recorded: not toxic
Cytoplasmic calcium
  change in cytoplasmic calcium: did not induce a detectable change
[2]
  sensitivity of NK1R-transfected 293T cells to SP: sensitive to SP at nanomolar concentrations
Cytochrome c release
  cytochrome c release: can induce cytochrome c release
[3]
  sensitivity of 293T cells to SP-induced cell death: resistant
